{"source": "paper PMC7890489", "about": "“Study on pharmacological properties and cell absorption metabolism of novel daidzein napsylates” (Royal Society Open Science, 2021)", "key": {"[1]": {"assay": "Apparent lipid-water (n-octanol/water) partition coefficient by HPLC", "format": "physicochemical", "set-up": "key: —: Cannot be detected", "protocol": "(§1) Mobile phase: acetonitrile-methanol (1 : 1); flow rate: 1.0 ml min^−1; injection volume: 20 µl; wavelength: 230 nm or 254 nm; column temperature: 25°C.\nDD4 (5.1 mg) was dissolved in 50 ml of water-saturated n-octanol solution to prepare a solution with a concentration of 102 mg l^−1. Solution (2 ml) and water-saturated n-octanol solution (2 ml) were added to a plugged 10 ml tube. The prepared sample solution was placed in a shaker and shaken to equilibrium overnight in the dark at constant temperature (37 ± 0.1)°C. The lower aqueous phase was taken and analysed by HPLC after centrifugation at a speed of 3000 r min^−1 for 10 min. The drug concentration in the aqueous phase (ρw) was calculated via the standard curve according to the peak area. DD5 (4.5 mg) was dissolved in 50 ml of water-saturated n-octanol solution to prepare a solution with a concentration of 90 mg l^−1. Other methods were the same as those for DD4 [14]."}, "[2]": {"assay": "Solubility in water, methanol, cyclohexane and ethyl acetate by HPLC", "format": "physicochemical", "protocol": "as §1\nFive millilitres of water, methanol, cyclohexane and ethyl acetate was added to test tubes, and then samples (DD4 or DD5) were added. These solutions were shaken at constant temperature (37 ± 0.1)°C for 48 h. The supernatant was taken to determine its solubility with HPLC [14]. Solutions of tested sample beyond the linear concentration range were diluted with methanol for determination."}, "[3]": {"test_system": "human aortic vascular smooth muscle cells (HAVSMCs)", "assay": "Cell metabolism in HAVSMCs by HPLC-MS", "format": "in vitro ADME", "settings": "for metabolite identified (chemical name): HAVSMC lysate, 24 h incubation, HPLC-MS negative ion mode", "protocol": "(§2) HAVSMCs were obtained from resuscitation in cryopreservation tubes. HAVSMCs at passages 3–10 were seeded at a density of 10^5 in 6-well plates, 2 ml per well. The cells were cultured at 37°C in a 5% carbon dioxide incubator for 24 h to adhere to the cell wall; cells were cultured in serum-free DMEM for 24 h. The cells were synchronized, the supernatant was carefully aspirated and different concentrations of drug solution were added to the DMEM culture medium containing 10% serum. Equal amounts of DMEM culture medium without drugs were added to the blank group. Each group was set up in triplicate and further cultured. The cultures were terminated at 0.5, 1, 6, 12, 24 or 48 h. Cell culture supernatants were collected and stored at −80°C for further analysis.\nMobile phase: methanol-formic acid (1 : 1); flow rate: 0.5 ml min^−1; injection volume: 10 µl; wavelength: 254 nm; column temperature: 25°C.\nA triple quadrupole tandem precision mass spectrometer (Agilent 6430) with an […] source and a negative ion mode was used for precise determination. The full mass spectrum data were obtained in the range of m/z 50–1000. The optimal mass spectrum parameters were as follows: the capillary voltage was 4.0 kV; the injection cone voltage was 35 V; the desolvation gas flow (N2) rate was 900 l h^−1; the injection cone gas flow (N2) rate was 50 l h^−1; the desolvation temperature was 350°C; the ion source temperature was 150°C; the collision gas in collision induced dissociation (CID) mode was helium with high purity; the inlet pressure was set at 40 psi; the CID collision energy of the standard was 5–35 eV and the cracking voltage was 135 V.\nThe cell supernatant was thawed and vortexed for 0.5 min. Cell supernatant (50 µl) and […] (50 µl) were added to a 2 ml centrifuge tube and vortexed for 3 min. Ammonium dihydrogen phosphate (100 µl, 0.4%) and 1 ml of ethyl acetate were added, and the sample was vortexed for 3 min. The mixture was centrifuged at 3000 r min^−1 for 10 min. The supernatant (95 µl) was aspirated and dried by N2 flow. […] (500 µl) was added and the sample was vortexed for 0.5 min. After filtration over a 0.45 µm organic membrane, HPLC-MS analysis was carried out.\nCells from the −80°C stock were thawed at room temperature, and 1 ml of thawed cell lysate was added into each well of a 6-well plate. From each group, 0.5 ml of cell lysate was taken; 50 µl of […], 100 µl of ammonium dihydrogen phosphate (0.4%) and 1 ml of ethyl acetate were added and samples were vortexed for 3 min. Lysate (95 µl) was aspirated and dried by N2 flow. […] (500 µl) was added and samples were vortexed for 0.5 min. After filtration over a 0.45 µm organic membrane, HPLC-MS analysis was carried out."}, "[4]": {"test_system": "human aortic vascular smooth muscle cells (HAVSMCs)", "assay": "Drug absorption in human aortic vascular smooth muscle cells (HPLC of cell supernatant)", "format": "in vitro ADME", "settings": "for value (drug concentration in cell supernatant): dosing DD4 171, DD5 120 ug/mL", "protocol": "as §2\nCell supernatants were thawed at room temperature and vortexed for 1 min. To 50 µl of the cell supernatant, 50 µl of methanol was added and the mixtures were mixed uniformly by eddy current. Ethyl acetate (1 ml) was added to the mixture and vortexed for 3 min. Ethyl acetate was separated by cooled centrifugation at 3000 r min^−1 and dried with nitrogen, and the residue was dissolved in 500 µl of methanol before injection for analysis.\nMobile phase: methanol-phosphoric acid solution (0.4%) (1 : 1); flow rate: 0.5 ml min^−1; injection volume: 10 µl; wavelength: 230 nm or 254 nm; column temperature 25°C.\nCell supernatants were thawed and vortexed for 1 min. Drug-added supernatant (50 µl) was treated by the same method as the pre-treatment of cell samples described in §4.2.\nThe absorption and utilization rates of DD4 and DD5 were calculated by the formula (6.1), with the reduction of drug concentration in the cell culture medium taken as the absorption amount of drug by cells. The initial drug concentration was c0, and the concentration in the cell supernatant at other time points is denoted as c. […] With increasing time, the cell absorption rate of the drug was maintained at about 60%. The main reason for the differences in absorption of DD4 and DD5 might be the length of the substituent group (methyl, ethyl) on the 7-position:6.1 absorption rate=c0−c/c0×100%."}, "[5]": {"assay": "Solubility in water, methanol, cyclohexane and ethyl acetate by HPLC", "format": "physicochemical", "settings": "organic solvent or mixture, thermodynamic from solid, head: hexane (text: cyclohexane), 37 °C, shaken 48 h"}}, "note": "Several values for one entry are separate records, joined by “and”; a condition that tells them apart may be missing. Identical values can stand only once. Like-named read-outs stand apart in the source and are kept apart here.", "data": [{"smiles": "CCOc1ccc2c(=O)c(-c3ccc(OS(=O)(=O)c4ccc5ccccc5c4)cc3)coc2c1", "note": "[DD5]", "values": [{"measurement": "lgP", "setting": "[1]; 37 °C, HPLC of aqueous phase", "value": "—^b"}, {"measurement": "apparent lipid-hydro partition coefficient found", "setting": "[1]; HPLC", "value": "—^b"}, {"measurement": "solubility at 48 h", "setting": "[2]; organic solvent or mixture, thermodynamic from solid, methanol, 37 °C, shaken 48 h, HPLC, read-out: solubility methanol", "value": "2470 ± 72.4", "unit": "µg/mL"}, {"measurement": "solubility at 48 h", "setting": "[2]; thermodynamic from solid, water, 37 °C, shaken 48 h, HPLC, read-out: solubility water", "value": "< 0.059", "unit": "µg/mL"}, {"measurement": "solubility in water", "setting": "[2]; water, 37 °C", "value": "too poor to be detected"}, {"measurement": "solubility at 48 h", "setting": "[2]; water, Table 5, read-out: solubility in water", "value": "< 0.059", "unit": "µg/mL"}, {"measurement": "metabolite identified (chemical name)", "setting": "[3]; metabolite DAI", "value": "daidzein"}, {"measurement": "metabolite identified (chemical name)", "setting": "[3]; metabolite M2", "value": "daidzein-4'-naphthalene sulphonate"}, {"measurement": "metabolite identified (chemical name)", "setting": "[3]; metabolite M4 or/and M4a", "value": "daidzein-4'-glucoside or daidzein-7-glucoside"}, {"measurement": "metabolite identified (chemical name)", "setting": "[3]; metabolite M5", "value": "7-ethyldaidzein"}, {"measurement": "metabolite identified (chemical name)", "setting": "[3]; metabolite M6", "value": "daidzein-7-ethyl-4'-glucoside"}, {"measurement": "metabolite identified (chemical name)", "setting": "[3]; metabolite M7", "value": "daidzein-7-ethyl-4'-sulphonic acid"}, {"measurement": "metabolites found in cell lysate", "setting": "[3]; HAVSMCs incubated 24 h, HPLC-MS, also found in supernatant", "value": "Six metabolites were found"}, {"measurement": "redox products in HAVSMCs", "setting": "[3]; preliminary analysis of metabolic components", "value": "no redox products"}, {"measurement": "melting point", "value": "151 to 153", "unit": "°C"}, {"measurement": "time of peak (maximum) absorption", "setting": "[4]", "value": 1, "unit": "h"}, {"measurement": "value (drug concentration in cell supernatant)", "setting": "[4]; 0.5 h", "value": "88.31 ± 4.25", "unit": "µg/mL"}, {"measurement": "value (drug concentration in cell supernatant)", "setting": "[4]; 1 h", "value": "11.59 ± 0.08", "unit": "µg/mL"}, {"measurement": "value (drug concentration in cell supernatant)", "setting": "[4]; 6 h", "value": "44.60 ± 3.91", "unit": "µg/mL"}, {"measurement": "value (drug concentration in cell supernatant)", "setting": "[4]; 12 h", "value": "47.13 ± 15.99", "unit": "µg/mL"}, {"measurement": "value (drug concentration in cell supernatant)", "setting": "[4]; 24 h", "value": "50.34 ± 1.31", "unit": "µg/mL"}, {"measurement": "value (drug concentration in cell supernatant)", "setting": "[4]; 48 h", "value": "29.29 ± 2.50", "unit": "µg/mL"}, {"measurement": "maximum cell absorption rate relative to DAI", "setting": "[4]; compared with DAI", "value": "4.5 times and 4.3–4.5 times"}, {"measurement": "absorptivity (maximum absorption rate)", "setting": "[4]; maximum (at 1 h)", "value": 90.34, "unit": "%"}, {"measurement": "solubility at 48 h", "setting": "[5]", "value": "69.7 ± 20.8", "unit": "µg/mL"}]}]}
